Measured values published in patent US6737383B1, “Herbicidal oxadiazolidines” (priority 1999, dated 2004).

How the values were obtained:
surinam grass = assay: Test B pre/postemergence surinam grass; type: in vivo, Brachiaria decumbens
In short: (§1)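 Test chemicals in a non-phytotoxic solvent mixture with surfactant were sprayed preemergence onto planted seeds and postemergence onto plants 2 to 18 cm tall (1- to 4-leaf stage). After twelve to sixteen days in a greenhouse, injury was visually rated against untreated controls from 0 (no effect) to 10 (complete control).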

cocklebur = assay: Test B pre/postemergence cocklebur; type: in vivo, Xanthium strumarium
In short: as §1

velvetleaf = assay: Test B pre/postemergence velvetleaf; type: in vivo, Abutilon theophrasti
In short: as §1

giant foxtail = assay: Test B pre/postemergence giant foxtail; type: in vivo, Setaria faberii
In short: as §1

wheat = assay: Test B pre/postemergence wheat; type: in vivo, Triticum aestivum
In short: as §1

rape = assay: Test B pre/postemergence rape; type: in vivo, Brassica napus
In short: as §1

duck salad = assay: Test B flood test duck salad; type: in vivo, Heteranthera limosa
In short: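 Plants were grown to the 2-leaf stage before treatment with test chemical, then held in a greenhouse for twelve to sixteen days. Injury was visually rated against untreated controls on a 0–10 scale, where 0 is no effect and 10 is complete control.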

corn = assay: Test B pre/postemergence corn; type: in vivo, Zea mays
In short: as §1

soybean = assay: Test B pre/postemergence soybean; type: in vivo, Glycine max
In short: as §1

bedstraw = assay: Test B pre/postemergence bedstraw; type: in vivo, Galium aparine
In short: as §1

pigweed = assay: Test B pre/postemergence pigweed; type: in vivo, Amaranthus retroflexus
In short: as §1

morningglory = assay: Test B pre/postemergence morningglory; type: in vivo, Ipomoea hederacea
In short: as §1

rice = assay: Test B flood test rice; type: in vivo, Oryza sativa
Description: (§2) At the same time, these crop and weed species were also treated with postemergence applications of test chemicals formulated in the same manner. Plants ranged in height from 2 to 18 cm (1- to 4-leaf stage) for postemergence treatments. Plant species in the flood test consisted of rice (Oryza sativa), smallflower flatsedge (Cyperus difformis), duck salad (Heteranthera limosa) and bamyardgrass (Echinochloa crus-galli) grown to the 2-leaf stage for testing. Treated plants and controls were maintained in a greenhouse for twelve to sixteen days, after which all species were compared to controls and visually evaluated. Plant response ratings, summarized in Table B, are based on a scale of 0 to 10 where 0 is no effect and 10 is complete control. A dash (−) response means no test result.

purple nutsedge = assay: Test B pre/postemergence purple nutsedge; type: in vivo, Cyperus rotundus
In short: as §1

sugar beet = assay: Test B pre/postemergence sugar beet; type: in vivo, Beta vulgaris
In short: as §1

wild oat = assay: Test B pre/postemergence wild oat; type: in vivo, Avena fatua
In short: as §1

blackgrass = assay: Test B pre/postemergence blackgrass; type: in vivo, Alopecurus myosuroides
In short: as §1

crabgrass = assay: Test B pre/postemergence crabgrass; type: in vivo, Digitaria sanguinalis
In short: as §1

smallflower flatsedge = assay: Test B flood test smallflower flatsedge; type: in vivo, Cyperus difformis
Description: as §2

bamyardgrass = assay: Test B flood test barnyardgrass; type: in vivo, Echinochloa crus-galli
Description: as §2

[1] = Postemergence, Rate 62 g/ha, scale 0 to 10, 0 is no effect, 10 is complete control
[2] = Postemergence, Rate 250 g/ha, scale 0 to 10, 0 no effect, 10 complete control
[3] = Preemergence, Rate 62 g/ha, scale 0 to 10, 0 is no effect, 10 is complete control
[4] = Preemergence, Rate 125 g/ha, scale 0 to 10 (0 no effect, 10 complete control)
[5] = Preemergence, Rate 250 g/ha, scale of 0 to 10 where 0 is no effect and 10 is complete control
[6] = Preemergence, Rate 500 g/ha, scale 0 (no effect) to 10 (complete control)
[7] = Rate 125 g/ha, Postemergence, scale 0 to 10, 0 no effect, 10 complete control
[8] = Rate 500 g/ha, Postemergence, scale 0 to 10, 0 no effect, 10 complete control
[9] = Rate 125 g/ha, Postemergence section (flood test species), scale 0 to 10, 0 no effect, 10 complete control
[10] = Rate 500 g/ha, listed under Postemergence (flood test species), scale 0 to 10, 0 no effect, 10 complete control
[11] = flood test, listed under Postemergence, Rate 250 g/ha, scale 0 to 10, 0 no effect, 10 complete control
[12] = Rate 62 g/ha, flood test species, Pre-emergence, visual evaluation after twelve to sixteen days
[13] = Rate 125 g/ha, under heading Pre-emergence, flood test species, visual evaluation after twelve to sixteen days
[14] = Rate 250 g/ha, Pre-emergence (flood test species), scale 0 to 10, 0 is no effect, 10 is complete control
[15] = Rate 500 g/ha, Pre-emergence section of Table B, 0 to 10 scale (0 no effect, 10 complete control)

COc1ccc(N(C(=O)n2oc(=O)n(-c3ccccc3C)c2=O)C(C)C)cc1 [Compound 49]
B. signalgrass plant response rating (surinam grass; [1]): 0
B. signalgrass plant response rating (surinam grass; [2]): 0
Plant response rating, B. signalgrass (surinam grass; [3]): 0
Plant response rating, B. signalgrass (surinam grass; [4]): 0
Plant response rating, B. signalgrass (surinam grass; [5]): 0
B. signalgrass plant response rating (surinam grass; [6]): 0
B. signalgrass plant response rating (surinam grass; [7]): 0
B. signalgrass plant response rating (surinam grass; Rate 500 g/ha, Postemergence, scale of 0 to 10 where 0 is no effect and 10 is complete control): 0
Cocklebur plant response rating (cocklebur; [1]): 0
Cocklebur plant response rating (cocklebur; [2]): 0
Plant response rating, Cocklebur (cocklebur; [3]): 0
Plant response rating, Cocklebur (cocklebur; [4]): 0
Plant response rating, Cocklebur (cocklebur; [5]): 0
Cocklebur plant response rating (cocklebur; [6]): 0
Cocklebur plant response rating (cocklebur; [7]): 0
Cocklebur plant response rating (cocklebur; [8]): 0
Velvetleaf plant response rating (velvetleaf; [1]): 0
Velvetleaf plant response rating (velvetleaf; [2]): 0
Plant response rating, Velvetleaf (velvetleaf; [3]): 0
Plant response rating, Velvetleaf (velvetleaf; [4]): 0
Plant response rating, Velvetleaf (velvetleaf; [5]): 0
Velvetleaf plant response rating (velvetleaf; [6]): 0
Velvetleaf plant response rating (velvetleaf; [7]): 0
Velvetleaf plant response rating (velvetleaf; [8]): 0
Giant foxtail plant response rating (giant foxtail; [1]): 1
Giant foxtail plant response rating (giant foxtail; [2]): 9
Plant response rating, Giant foxtail (giant foxtail; [3]): 8
Plant response rating, Giant foxtail (giant foxtail; [4]): 8
Plant response rating, Giant foxtail (giant foxtail; [5]): 10
Giant foxtail plant response rating (giant foxtail; [6]): 10
Giant foxtail plant response rating (giant foxtail; [7]): 4
Giant foxtail plant response rating (giant foxtail; [8]): 9
Wheat plant response rating (wheat; [1]): 0
Wheat plant response rating (wheat; [2]): 0
Plant response rating, Wheat (wheat; [3]): 0
Plant response rating, Wheat (wheat; [4]): 0
Plant response rating, Wheat (wheat; [5]): 0
Wheat plant response rating (wheat; [6]): 0
Wheat plant response rating (wheat; [7]): 0
Wheat plant response rating (wheat; [8]): 0
Rape plant response rating (rape; [1]): 0
Rape plant response rating (rape; [2]): 0
Plant response rating, Rape (rape; [3]): 0
Plant response rating, Rape (rape; [4]): 0
Plant response rating, Rape (rape; [5]): 0
Rape plant response rating (rape; [6]): 0
Rape plant response rating (rape; [7]): 0
Rape plant response rating (rape; [8]): 0
Ducksalad plant response rating (duck salad; [9]): 0
Corn plant response rating (corn; [1]): 0
Corn plant response rating (corn; [2]): 0
Plant response rating, Corn (corn; [3]): 0
Plant response rating, Corn (corn; [4]): 0
Plant response rating, Corn (corn; [5]): 0
Corn plant response rating (corn; [6]): 0
Corn plant response rating (corn; [7]): 0
Corn plant response rating (corn; [8]): 0
Soybean plant response rating (soybean; [1]): 1
Soybean plant response rating (soybean; [2]): 1
Plant response rating, Soybean (soybean; [3]): 0
Plant response rating, Soybean (soybean; [4]): 0
Plant response rating, Soybean (soybean; [5]): 0
Soybean plant response rating (soybean; [6]): 0
Soybean plant response rating (soybean; [7]): 1
Soybean plant response rating (soybean; [8]): 1
Bedstraw plant response rating (bedstraw; [1]): 0
Bedstraw plant response rating (bedstraw; [2]): 5
Plant response rating, Bedstraw (bedstraw; [3]): 0
Plant response rating, Bedstraw (bedstraw; [4]): 0
Plant response rating, Bedstraw (bedstraw; [5]): 0
Bedstraw plant response rating (bedstraw; [6]): 0
Bedstraw plant response rating (bedstraw; [7]): 0
Redroot pigweed plant response rating (pigweed; [1]): 0
Redroot pigweed plant response rating (pigweed; [2]): 0
Plant response rating, Redroot pigweed (pigweed; [3]): 0
Plant response rating, Redroot pigweed (pigweed; [4]): 0
Plant response rating, Redroot pigweed (pigweed; [5]): 0
Redroot pigweed plant response rating (pigweed; [6]): 0
Redroot pigweed plant response rating (pigweed; [7]): 0
Redroot pigweed plant response rating (pigweed; [8]): 0
Morningglory plant response rating (morningglory; [1]): 0
Morningglory plant response rating (morningglory; [2]): 0
Plant response rating, Morningglory (morningglory; [3]): 0
Plant response rating, Morningglory (morningglory; [4]): 0
Plant response rating, Morningglory (morningglory; [5]): 0
Morningglory plant response rating (morningglory; [6]): 0
Morningglory plant response rating (morningglory; [7]): 0
Morningglory plant response rating (morningglory; [8]): 3
Rice plant response rating (rice; [9]): 0
Nutsedge plant response rating (purple nutsedge; [1]): 0
Nutsedge plant response rating (purple nutsedge; [2]): 0
Plant response rating, Nutsedge (purple nutsedge; [3]): 0
Plant response rating, Nutsedge (purple nutsedge; [4]): 0
Plant response rating, Nutsedge (purple nutsedge; [5]): 0
Nutsedge plant response rating (purple nutsedge; [6]): 0
Nutsedge plant response rating (purple nutsedge; [7]): 0
Nutsedge plant response rating (purple nutsedge; [8]): 0
Sugarbeets plant response rating (sugar beet; [1]): 0
Sugarbeets plant response rating (sugar beet; [2]): 0
Plant response rating, Sugarbeets (sugar beet; [3]): 0
Plant response rating, Sugarbeets (sugar beet; [4]): 0
Plant response rating, Sugarbeets (sugar beet; [5]): 0
Sugarbeets plant response rating (sugar beet; [6]): 0
Sugarbeets plant response rating (sugar beet; [7]): 0
Sugarbeets plant response rating (sugar beet; [8]): 0
Wild oats plant response rating (wild oat; [1]): 0
Wild oats plant response rating (wild oat; [2]): 0
Plant response rating, Wild oats (wild oat; [4]): 0
Plant response rating, Wild oats (wild oat; [5]): 0
Wild oats plant response rating (wild oat; [6]): 0
Wild oats plant response rating (wild oat; [7]): 0
Wild oats plant response rating (wild oat; [8]): 0
Blackgrass plant response rating (blackgrass; [1]): 0
Blackgrass plant response rating (blackgrass; [2]): 0
Plant response rating, Blackgrass (blackgrass; [3]): 0
Plant response rating, Blackgrass (blackgrass; [4]): 0
Plant response rating, Blackgrass (blackgrass; [5]): 0
Blackgrass plant response rating (blackgrass; [6]): 0
Blackgrass plant response rating (blackgrass; [7]): 0
Blackgrass plant response rating (blackgrass; [8]): 0
Crabgrass plant response rating (crabgrass; [1]): 0
Crabgrass plant response rating (crabgrass; [2]): 8
Plant response rating, Crabgrass (crabgrass; [3]): 2
Plant response rating, Crabgrass (crabgrass; [4]): 7
Plant response rating, Crabgrass (crabgrass; [5]): 9
Crabgrass plant response rating (crabgrass; [6]): 9
Crabgrass plant response rating (crabgrass; [7]): 1
Crabgrass plant response rating (crabgrass; [8]): 9

CCN(CC)C(=O)n1oc(=O)n(Cc2ccccc2C)c1=O [Compound 84]
Ducksalad plant response rating (duck salad; [1]): 0
Ducksalad plant response rating (duck salad; [9]): 0
Ducksalad plant response rating (duck salad; [10]): 0
Ducksalad plant response rating (duck salad; [11]): 0
S. Flatsedge plant response rating (smallflower flatsedge; [1]): 0
S. Flatsedge plant response rating (smallflower flatsedge; [9]): 0
S. Flatsedge plant response rating (smallflower flatsedge; [10]): 0
S. Flatsedge plant response rating (smallflower flatsedge; [11]): 0
Rice plant response rating (rice; [1]): 0
Rice plant response rating (rice; [9]): 0
Rice plant response rating (rice; [10]): 0
Rice plant response rating (rice; [11]): 0
Barnyardgrass plant response rating (bamyardgrass; [1]): 0
Barnyardgrass plant response rating (bamyardgrass; [9]): 0
Barnyardgrass plant response rating (bamyardgrass; [10]): 0
Barnyardgrass plant response rating (bamyardgrass; [11]): 0

CC(C)N(C(=O)n1oc(=O)n(CCc2ccccc2)c1=O)c1ccc(Cl)cc1 [Compound 538]
Plant response rating, Ducksalad (0 to 10 scale, 0 is no effect, 10 is complete control) (duck salad; [12]): 0
Ducksalad plant response rating (0 to 10 scale, 0 is no effect, 10 is complete control) (duck salad; [13]): 0
Ducksalad plant response rating (duck salad; [14]): 0
Ducksalad plant response rating (duck salad; [15]): 0
Plant response rating, S. Flatsedge (0 to 10 scale, 0 is no effect, 10 is complete control) (smallflower flatsedge; [12]): 0
S. Flatsedge plant response rating (0 to 10 scale, 0 is no effect, 10 is complete control) (smallflower flatsedge; [13]): 0
S. Flatsedge plant response rating (smallflower flatsedge; [14]): 0
S. Flatsedge plant response rating (smallflower flatsedge; [15]): 0
Plant response rating, Barnyardgrass (0 to 10 scale, 0 is no effect, 10 is complete control) (bamyardgrass; [12]): 0
Barnyardgrass plant response rating (0 to 10 scale, 0 is no effect, 10 is complete control) (bamyardgrass; [13]): 0
Barnyardgrass plant response rating (bamyardgrass; [14]): 0
Barnyardgrass plant response rating (bamyardgrass; [15]): 0
